Calls of active or inactive are those of the source. The rule behind the calls is not given here.
Experiments:
PANC-1 [1] = assay: Cytotoxicity in pancreatic PANC1 cancer cells at 100 ug/ml in nutrient-rich condition; type: functional, cell-based; conditions: Homo sapiens
PANC-1 [2] = assay: Cytotoxicity in pancreatic PANC1 cancer cells at 100 ug/ml in nutrient-deprived condition; type: functional, cell-based; conditions: Homo sapiens
PANC-1 [3] = assay: Cytotoxicity in pancreatic PANC1 cancer cells at 10 ug/ml within 6 hours of nutrient deprivation; type: functional, Homo sapiens
PANC-1 [4] = assay: Cytotoxicity in pancreatic PANC1 cancer cells at 0.01 ug/ml within 24 hours of nutrient deprivation; type: functional, Homo sapiens

SMILES: CC(C)(O)[C@@H]1Cc2c(ccc3ccc(=O)oc23)O1
- Activity (PANC-1 [1]): inactive
- Activity (PANC-1 [2]): inactive

SMILES: CC(C)(OC(=O)/C=C/c1ccc(O)cc1)[C@@H]1Cc2c(ccc3ccc(=O)oc23)O1 [ANGELMARIN]
- Activity (PANC-1 [3]): 100%
- Activity (PANC-1 [4]): 100%
